Data as given in PMC11215771 (Journal of Medicinal Chemistry, 2024).
“And” between values parts separate entries of the source, which are not always exact repeats. Equal values may be shown once.

Key:
[1] = biological target: BACE-1 (mouse Protein, recombinant) (Mus musculus, UniProt P56818); assay: Nanotemper (Monolith NT.115) binding analysis; conditions: for binding of free acid dyes to recombinant BACE1: 0.1 nM dye, BACE1 0.3–5000 nM
Method: For binding analysis, the Monolith NT.115 (Nanotemper) was used. BACE-1 (mouse Protein, recombinant, life technologies, 50002-M08H-250, LCL10JA2204)) was dissolved in 50 mM HEPES/100 mM NaCl, pH 5 to a concentration of 20 μM. […] Samples were loaded on standard capillaries (Nanotemper, MO-K022) and measured in triplicate at 22 °C, using 1%/60% LED power for Alexa488/Alexa568 and 10% MST power. Fluorescence was plotted against protein concentrations.

[2] = tested on: BACE1; conditions: cited from earlier work
[3] = biological target: T1, hBACE1 D289N (proteolytic inactive mutant) in HEK293T cells (Homo sapiens, UniProt P56817, D289N); assay: Staining of transfected HEK293T cells, confocal imaging: BACE1 D289N; format: cell-based
T1 construct: expressed in transfected cells; host or cells: HEK293T
Method: (§1) Next, we explored the performance of the new Alexa-C3 compounds in living cells. Because of the rather hydrophilic properties, we exclusively targeted the cell membrane. To prevent intracellular accumulation, we first performed stainings at 4 °C arresting ATP-dependent endocytosis. […] All of the constructs were tagged at the C-terminus with either EGFP or mCherry to visualize subcellular expression. […] With these experiments, we want to exclude that a lack of staining is caused by an impaired accessibility of the protein by Alexa-C3 compounds. […] We then tested samples with BACE1 expression after fixation of the cells with paraformaldehyde (PFA).
(§2) (D) All conjugates were also probed on cells fixed with 4% paraformaldehyde (PFA) for 15 min prior to staining. […] Scale bars represent 5 μm (A–D) and 20 μm (E). […] Samples were excited at 488, 561, and 633 nm, respectively.
(§3) HEK293T cells (ATCC accession number CRL-11268) were maintained in Dulbecco's modified Eagle's medium (Sigma-Aldrich D6046) with 1g/L glucose, supplemented with 10% FCS (Merck) and 1% penicillin/streptomycin (PAA). CHO-K1 cells (ATCC #CCL-61) were maintained in modified phenol red free RPMI-1640 medium (Sigma-Aldrich, R7509), supplemented with 2 mM L-glutamine (Sigma-Aldrich, G7513), and 10% FCS (Merck). Cells were cultured at 37 °C in a 5% CO2 atmosphere. The following plasmids were used for transfection with the amount of DNA indicated (per 35 mm Petri dish): hBACE1 (NM_012104.4), 50 ng for single molecule recordings, 200 ng otherwise; hBACE1 fused to EGFP or mCherry, 75 ng; hBACE1 D289N fused to EGFP or mCherry, 75 ng; hBACE1 D289N, 200–400 ng; hBACE2 (NM_012105.3) fused to EGFP, 75 ng; hCathepsinD (HsCD00438327), Harvard PlasmID, 75 ng. Transfection was performed 24 h after plating using jetPEI (Polyplus) according to the manufacturer’s protocol.
For labeling, we plated HEK293T cells onto sterile 18 mm 1.5H borosilicate coverslips (VWR), coated with poly-D-lysine (Sigma). […]

[4] = biological target: recombinant human BACE1 protein (amino acids 1–457, extracellular domain) (Homo sapiens, UniProt P56817); assay: Fluorescence correlation spectroscopy (FCS) with BACE1 ECD in solution
[5] = biological target: T2, hBACE1 fused to EGFP or mCherry in HEK293T cells (Homo sapiens, UniProt P56817); assay: Staining of transfected HEK293T cells, confocal imaging: BACE1; format: cell-based; conditions: living HEK293T, preincubation with 2 μM C3
T2 construct: expressed in transfected cells; host or cells: HEK293T
Method: as §1, §2, §3
For labeling, we plated HEK293T cells onto sterile 18 mm 1.5H borosilicate coverslips (VWR), coated with poly-D-lysine (Sigma). […] In addition, some cells were also fixed with 4% PFA or permeabilized with HBS + 50 μg/mL of Saponin for 15 min prior to staining as stated in the figure legend. After staining, live cells were washed with HBS twice. Confocal imaging was conducted at room temperature in HBS using the 63× objective and the pinhole set to 1 AU. Confocal imaging was performed 24 h after transfection.

[6] = biological target: T3, recombinant BACE1 extracellular domain (Homo sapiens, UniProt P56817); assay: FRET-based BACE1 inhibition (BACE1-activity FRET) assay; format: biochemical
T3 construct: purchased Thermo Fisher Scientific P2985
Method: In addition, we performed a fluorescence resonance energy transfer (FRET)-based BACE1 inhibition assay using the recombinant BACE1 extracellular domain and a BACE1 substrate coupled to a donor fluorophore, which is unquenched […] to the activity of BACE1. […] (Figure 1F).
Protease activity was determined using a FRET-based assay with recombinant BACE1 protein (Thermo Fisher Scientific; P2985). BACE1 inhibition was determined in end-points assays according to the manufacturer’s protocol except using a reduced volume of 12 μL in 384-well plates (Greiner, 788896). […] Fluorescence intensities were quantified with an infinite 200pro reader (Tecan) using top-reading mode. Data points were approximated using a logistic fit to determine half-inhibitory concentrations (pIC50).

[7] = Fluorescence spectroscopy, sensitivity to BSA and Expi293F cells
Method: Emission and excitation spectra of all compounds were determined at a concentration of 33 nM in phosphate buffered saline (PBS) using an infinite 200pro (Tecan) with a resolution of 2 nm. […] For sensitivity assessment, we used PBS, PBS + BSA (0.05%), and Expi293F cells in fluorobrite (2 × 10^6 cells/mL).

[8] = biological target: T4, wild-type hBACE1 in CHO-K1 cells (Homo sapiens, UniProt P56817); assay: Single molecule TIRF microscopy and bleaching step analysis in CHO-K1 cells; format: cell-based; conditions: 200 nM probe, fixed CHO-K1, TIRF, after rolling background subtraction
T4 construct: expressed in transfected cells; host or cells: CHO-K1
Method: Due to the high photostability and quantum yield of the Alexa dyes, the C3-compounds are potential tools for single molecule fluorescence microscopy of BACE1. […] CHO-K1 cells were transfected with wild-type BACE1. […] The samples were then recorded using total internal reflection fluorescence (TIRF) microscopy. […] Prior to analysis, ImageJ rolling background subtraction was applied[45] (Figure 6A, right panel). […] Single particles were identified and time traces of fluorescence intensity were extracted using GMimPro[46] (Figure 6B). The time traces were then subjected to a bleaching-step analysis with quickPBSA[47] (Figure 6B). […] The msfGFP was reported previously to display a fluorescence probability of about 50%, defined as combined probability of fluorescence, detection in the specific imaging system and identification in the analysis of a BACE1 molecule.[48] […] Here, the best fits indicated also a fluorescence probability of about 60%, but with a considerably lower fit error compared to dimers only (Figure 6D, blue traces).
The panel in the middle depicts typical single molecule complexes 48 h after transfection with 50 ng wild type BACE1. […] The insets highlight single fluorescence spots at higher magnification. […] (B) Single fluorescence spots were located and fluorescence intensities over time were extracted (see methods). […]

[9] = FCS of free Alexa-C3 in HBS in the absence of BACE1; conditions: 100 nM in HBS, pH 5, no BACE1, mean ± SD
[10] = BACE1 concentration 0.305 (unit not given; 0.3–5000 nM), triplicate
[11] = BACE1 concentration 0.61, triplicate
[12] = BACE1 concentration 1.221, triplicate
[13] = BACE1 concentration 2.441, triplicate
[14] = BACE1 concentration 4.883, triplicate
[15] = BACE1 concentration 9.766, triplicate
[16] = BACE1 concentration 19.531, triplicate
[17] = BACE1 concentration 39.062, triplicate
[18] = BACE1 concentration 78.125, triplicate
[19] = BACE1 concentration 156.25, triplicate
[20] = BACE1 concentration 312.5, triplicate
[21] = BACE1 concentration 625, triplicate
[22] = BACE1 concentration 1250, triplicate
[23] = BACE1 concentration 2500, triplicate
[24] = BACE1 concentration 5000, triplicate

Chain of BACE-1 (mouse Protein, recombinant) (P56818 46-457 limits assumed): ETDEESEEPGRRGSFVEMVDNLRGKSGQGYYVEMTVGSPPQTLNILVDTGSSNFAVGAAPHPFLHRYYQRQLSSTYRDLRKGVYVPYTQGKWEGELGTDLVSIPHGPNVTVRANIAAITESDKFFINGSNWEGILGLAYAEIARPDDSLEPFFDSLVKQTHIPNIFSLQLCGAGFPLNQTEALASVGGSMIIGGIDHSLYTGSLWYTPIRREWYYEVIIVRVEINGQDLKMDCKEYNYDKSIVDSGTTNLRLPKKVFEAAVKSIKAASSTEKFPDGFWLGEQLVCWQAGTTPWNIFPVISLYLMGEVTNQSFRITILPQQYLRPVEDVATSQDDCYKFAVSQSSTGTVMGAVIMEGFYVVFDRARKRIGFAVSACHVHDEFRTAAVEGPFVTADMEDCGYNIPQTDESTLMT
T3 sequence (P56817 46-457 limits assumed): as the sequence (P56818 46-457 limits assumed) above, with S6P, I162V, I165L, T180S, A182V, V340I, A393L counted along it
Chain of recombinant human BACE1 protein (amino acids 1–457, extracellular domain) (P56817 22-457): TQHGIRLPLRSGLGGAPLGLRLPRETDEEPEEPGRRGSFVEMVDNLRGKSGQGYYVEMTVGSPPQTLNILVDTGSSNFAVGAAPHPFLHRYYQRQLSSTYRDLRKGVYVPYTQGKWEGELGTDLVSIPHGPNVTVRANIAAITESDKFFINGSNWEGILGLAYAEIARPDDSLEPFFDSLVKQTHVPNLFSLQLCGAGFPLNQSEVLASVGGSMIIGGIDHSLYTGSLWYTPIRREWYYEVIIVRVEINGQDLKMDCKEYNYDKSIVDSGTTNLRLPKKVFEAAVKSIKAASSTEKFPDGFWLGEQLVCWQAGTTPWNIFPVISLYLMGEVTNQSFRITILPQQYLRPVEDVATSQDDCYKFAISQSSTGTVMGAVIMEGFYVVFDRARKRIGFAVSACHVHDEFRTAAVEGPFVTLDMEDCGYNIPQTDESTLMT
T1 sequence (P56817 46-501 D289N): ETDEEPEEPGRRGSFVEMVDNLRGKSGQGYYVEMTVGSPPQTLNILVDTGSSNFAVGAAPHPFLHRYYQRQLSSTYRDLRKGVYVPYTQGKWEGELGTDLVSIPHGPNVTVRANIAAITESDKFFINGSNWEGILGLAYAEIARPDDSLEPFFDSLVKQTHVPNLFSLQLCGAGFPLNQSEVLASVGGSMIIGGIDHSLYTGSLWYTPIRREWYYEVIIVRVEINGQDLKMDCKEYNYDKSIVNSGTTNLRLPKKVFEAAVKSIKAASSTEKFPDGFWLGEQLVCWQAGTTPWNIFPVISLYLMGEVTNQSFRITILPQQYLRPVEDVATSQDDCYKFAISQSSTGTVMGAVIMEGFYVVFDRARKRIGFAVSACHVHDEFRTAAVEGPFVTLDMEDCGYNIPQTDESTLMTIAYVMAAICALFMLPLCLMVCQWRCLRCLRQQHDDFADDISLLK
T4 sequence (P56817 46-501): as the sequence (P56817 46-501 D289N) above, with N244D counted along it
T2 sequence (P56817 46-501): as the sequence (P56817 46-501 D289N) above, with N244D counted along it

Structure (SMILES) | binding of free acid dyes to recombinant BACE1 [1] | fluorescence reading, single replicates [1, 10] | fluorescence reading, single replicates [1, 11] | fluorescence reading, single replicates [1, 12] | fluorescence reading, single replicates [1, 13] | fluorescence reading, single replicates [1, 14] | fluorescence reading, single replicates [1, 15] | fluorescence reading, single replicates [1, 16] | fluorescence reading, single replicates [1, 17] | fluorescence reading, single replicates [1, 18] | fluorescence reading, single replicates [1, 19] | fluorescence reading, single replicates [1, 20] | fluorescence reading, single replicates [1, 21] | fluorescence reading, single replicates [1, 22] | fluorescence reading, single replicates [1, 23] | fluorescence reading, single replicates [1, 24] | also measured
CC1(C)C=C(CS(=O)(=O)O)c2cc3c(cc2=N1)Oc1cc2c(cc1C=3c1cc(C(=O)O)ccc1C(=O)O)C(CS(=O)(=O)O)=CC(C)(C)N2 [Alexa568] | did not observe any indication for affinity | 1000.167 and 1000.199 and 1000.049 | 1000.123 and 1000.132 and 1000.01 | 1000.102 and 1000.025 and 1000.071 | 1000.271 and 1000.043 and 1000.008 | 1000.035 and 1000.075 and 1000.095 | 999.978 and 999.965 and 1000.148 | 1000.105 and 1000.065 and 999.949 | 1000.023 and 999.969 and 1000.096 | 1000.136 and 1000.189 and 1000.122 | 1000.014 and 1000.053 and 1000.126 | 999.991 and 999.997 and 999.948 | 999.898 and 999.877 and 999.931 | 999.758 and 999.742 and 999.781 | 999.645 and 999.707 and 999.65 | 999.562 and 999.587 and 999.529 | –
N=c1ccc2c(-c3cc(C(=O)O)ccc3C(=O)O)c3ccc(N)c(S(=O)(=O)O)c3oc-2c1S(=O)(=O)O [Alexa488] | did not observe any indication for affinity | 996.43 and 995.816 and 995.716 | 995.873 and 995.729 and 996.039 | 995.788 and 996.299 and 996.353 | 996.08 and 995.975 and 995.829 | 996.289 and 995.771 and 996.152 | 995.856 and 996.198 and 996.218 | 996.164 and 995.908 and 996.132 | 996.17 and 996.327 and 995.657 | 996.076 and 996.3 and 995.686 | 996.777 and 995.969 and 996.167 | 996.159 and 995.85 and 996.173 | 995.972 and 996.54 and 995.887 | 996.02 and 995.911 and 996.501 | 996.211 and 996.223 and 996.163 | 996.477 and 996.486 and 996.65 | –
C[C@@H](NC(=O)c1cc(C(=O)N[C@@H](Cc2ccccc2)[C@H](O)CNC2CC2)cc(N(C)S(C)(=O)=O)c1)c1ccccc1 [C3] | – | – | – | – | – | – | – | – | – | – | – | – | – | – | – | – | IC50 [2]: nanomolar range
C[C@@H](NC(=O)c1cc(C(=O)N[C@@H](Cc2ccccc2)[C@H](O)CNC2CC2)cc(N(C)S(=O)(=O)CCCNC(=O)c2ccc(C(=O)O)c(C3=c4cc5c(cc4Oc4cc6c(cc43)C(CS(=O)(=O)O)=CC(C)(C)N6)=NC(C)(C)C=C5CS(=O)(=O)O)c2)c1)c1ccccc1 | – | – | – | – | – | – | – | – | – | – | – | – | – | – | – | – | staining of BACE1 D289N [3]: no appreciable fluorescence; EC50 [4]: 0.0457 µM; diffusion time constant of the second (BACE1-bound, slow) population ([4]; 100 nM probe with BACE1 ECD, pH 5, mean ± SEM, n = 3 preparations): 300 ± 20 μs; staining of BACE1 after preincubation with unconjugated C3 [5]: no appreciable fluorescence; increase of potency of the pIC50 in a cell-free assay vs parent C3 ([6]; compared with unconjugated C3): 10 fold; IC50 ([6]; logistic fit, n = 3 for each compound, read-out: pIC50 (negative logarithm of the half-inhibitory concentration) (converted)): 0.00245 µM; increase of fluorescent output in PBS supplemented with BSA ([7]; PBS + BSA (0.05%) vs PBS alone): +228%; increase of fluorescent output in presence of Expi293F cells ([7]; mock Expi293F cells in fluorobrite vs PBS alone): +302%; signal-to-background ratio [8]: 5.9; diffusion time constant of free probe [9]: 49 ± 2 μs
